How the values were obtained:
[1] = test system: human prostate cancer cell line (DU145); assay: In vivo inhibition of tumor growth, DU145 xenograft; set-up: species or system human tumor cells in nude mice; conditions: for Starting volume: at start
Experimental: (§1) Cells from a non-small cell lung cancer cell line (A549) were grown in nine T175 flasks in F12K media and 10% fetal calf serum until the cells were confluent. 4.5×10^6 cells (in 100 microliters) were injected into the right rear flank of 4-5 week old male homozygous (nu/nu) nude mice (Harlan, Madison Wis.). Tumors were allowed to grow to an average size of ≧75 mm^3 before treatments were initiated. Animals of each tumor type, with the properly sized tumors, were divided into treatment groups, including one set of animals treated weekly with vehicle (phosphate buffered saline, PBS). The vehicle and the test agents were all administered by intraperitoneal injection. Each animal was weighed twice a week during treatment. The tumors were measured twice weekly using calipers. Tumor volume (mm^3) was determined by using the formula for an ellipsoid sphere: […]
(§2) The percent tumor growth inhibition (% TGI) is calculated by: […]
This xenograft model was set up as in the previous example except that a human prostate cancer cell line (DU145) was used. The efficacy of wild type human RNase 1 is shown relative to docetaxel. The RNase 1 was administered at 75 mg per kg of body weight of the animal (75 mg/kg 1×wk), while the docetaxel was used at 8 mg/kg once a week. The value of n represents the number of animals in the specific treatment arm of the experiment.
The xenograft model of this example was set up as in the previous example except that a human prostate cancer cell line (DU145) was used. The efficacy of wild type human RNase 1 is shown. The RNase 1 was administered at 75 mg per kg of body weight of the animal once per week (75 mg/kg 1×wk). The value of n represents the number of animals in the specific treatment arm of the experiment.
The xenograft model of this example was set up as in the previous example. The efficacy of wild type human RNase 1 is shown. The RNase 1 was administered at three different doses: (1) 15 mg per kg of body weight of the animal once per week (15 mg/kg 1×wk), (2) 75 mg/kg 1×wk, or (3) 300 mg/kg 1×wk. The value of n represents the number of animals in the specific treatment arm of the experiment.

[2] = test system: human breast cancer cell line (MDA-MB-231); assay: In vivo inhibition of tumor growth, MDA-MB-231 xenograft; set-up: species or system human tumor cells in nude mice; conditions: Example 10, Table 14, female mice, RNase 1 75 mg/kg 1×wk, doxorubicin 3 mg/kg once per week
Experimental: as §1, §2
The xenograft model of this example was set up as in the previous example except that a human breast cancer cell line (MDA-MB-231) and female mice were used. The efficacy of wild type human RNase 1 is shown relative to doxorubicin. The RNase 1 was administered at 75 mg per kg of body weight of the animal once per week (75 mg/kg 1×wk), while the doxorubicin was given at 3 mg/kg once per week. The value of n represents the number of animals in the specific treatment arm of the experiment.

tumor = conditions: previous experiments, Cancer Res., 64:4870 [2004]; cited from earlier work
[3] = Clinical chemistry and complete blood count plus platelets (DU145 xenograft mice); assay type: in vivo
Experimental: Clinical chemistry and a complete blood count (CBC) plus platelets were performed on whole blood and serum samples collected from the mice 24 hours after the last treatment of the prostate xenograft model above. […] Creatinine was also tested and found not to differ. The levels of the liver enzymes, gamma glutamyl transferase (GGT) and alanine transaminase (ALT) in all treatment groups were similar (GGT data not shown.). The values were determined for the various treatment groups of the prostate (DU145) xenograft study for clinical chemistry (A., B.), complete blood count (C., D.), and platelets (F.). Abbreviations: TCO2, amount of bicarbonate ion (HCO3^−); Anion Gap, [Na+K]—[Cl+HCO3]; ALT, alanine aminotransferase; WBC, white blood count; RBC, red blood count; HGB, hemoglobin; RBC HGB, (CHCM×RBC×MCV)/1000); MCH, mean corpuscular hemoglobin; MCHC, mean corpuscular hemoglobin concentration; RDW, red cell distribution width; MPV, mean platelet volume; HCT, hematocrit; MCV, mean corpuscular volume.

[4] = Example 4, Table 8, RNase 1 75 mg/kg 1×wk, docetaxel 8 mg/kg once a week
[5] = Example 8, Table 12, 75 mg/kg 1×wk
[6] = Example 9, Table 13, set up as in the previous example, 15 mg/kg 1×wk
[7] = Example 9, Table 13, set up as in the previous example, 75 mg/kg 1×wk
[8] = Example 9, Table 13, set up as in the previous example, 300 mg/kg 1×wk

Wild type human RNase 1: wild type human ribonuclease 1 (human pancreatic RNase), SEQ ID NO:1
% TGI [1, 4]: 80% | (Final − start) [1, 4]: 478 mm^3 | (Final − start)/Control [1, 4]: 0.20 | Final volume [1, 4]: 539 mm^3 | Starting volume [1, 4]: 61 mm^3 | % TGI [1, 5]: 77% | (Final − start) [1, 5]: 607 mm^3 | (Final − start)/Control [1, 5]: 0.23 | Final volume [1, 5]: 669 mm^3 | Starting volume [1, 5]: 62 mm^3 | % TGI [1, 6]: 0% | (Final − start) [1, 6]: 1136 mm^3 | (Final − start)/Control [1, 6]: 1 | Final volume [1, 6]: 1246 mm^3 | Starting volume [1, 6]: 110 mm^3 | % TGI [1, 7]: 61% | (Final − start) [1, 7]: 445 mm^3 | (Final − start)/Control [1, 7]: 0.39 | Final volume [1, 7]: 559 mm^3 | Starting volume [1, 7]: 114 mm^3 | % TGI [1, 8]: 43% | (Final − start) [1, 8]: 652 mm^3 | (Final − start)/Control [1, 8]: 0.57 | Final volume [1, 8]: 766 mm^3 | Starting volume [1, 8]: 114 mm^3 | % TGI [2]: 64% | (Final − start) [2]: 50 mm^3 | (Final − start)/Control [2]: 0.36 | Final volume [2]: 121 mm^3 | Starting volume ([2]; at start): 71 mm^3 | reduction in tumor volume (tumor): did not demonstrate a reduction in tumor volume | Creatinine versus vehicle ([3]; 24 hours after the last treatment): not to differ | Clinical chemistry and complete blood count plus platelets, all tests, versus vehicle ([3]; whole blood and serum 24 hours after the last treatment, Mann-Whitney U test): not to be significantly different
